# Results from US7432296B2, “Pharmaceutical formulations containing substituted 2-aryl-aminoacetic acid compounds and/or substituted 2-heteroaryl-aminoacetic acid compounds” (Gruenenthal GmbH, priority 2003, dated 2008).
# Structures can show the parent of a compound that is named as a salt.
# Legend:
# [1] = biological target: T1, glycine binding site of the NMDA receptor channel (Rattus norvegicus, UniProt P35439); assay: Receptor binding study (glycineB binding site of the NMDA receptor channel), displacement of (3H)-MDL 105.519; conditions: 10 μM of compound, rat brain membrane homogenate (cortex and hippocampus); for inhibition at 10 µM: read-out: Inhibition % (percentage fraction of bound radioactive ligand displaced from its specific binding)
# T1 construct: from tissue; host or cells: rat brain cortex and hippocampus membrane homogenate (male Wistar rats)
# Protocol: (a) Receptor Binding Study (GlycineB Binding Site of the NMDA Receptor Channel)
# The affinity of the compounds of the general formula I used according to the invention for the glycine binding site of the NMDA receptor channel is determined using brain membrane homogenates (homogenate of cortex and hippocampus area from the brain of male rats, Wistar strain), as for example described in B. M. Baron, B. W. Siegel, B. L. Harrison, R. S. Gross, C. […] The corresponding literature description is hereby introduced as a reference and is deemed to be part of the disclosure.
# To this end, the cortex and hippocampus are dissected out of freshly harvested rat brains and homogenised with ice cooling in 5 mmol/l of TRIS-acetate buffer, 0.32 mol/l of sucrose, pH 7.4 (10 ml/g fresh weight) using a Potter homogeniser (Braun/Melsungen, 10 piston strokes at 500 rpm) and then centrifuged for 10 minutes at 1,000 g and 4° C. The first supernatant is collected and the sediment again homogenised with ice cooling with 5 mmol/l of tris-acetate buffer, 0.32 mol/l of sucrose, pH 7.4 (5 ml/g of original fresh weight) with the Potter homogeniser (10 piston strokes at 500 rpm) and centrifuged for 10 minutes at 1,000 g and 4° C. The resultant supernatant is combined with the supernatant from the first centrifugation and centrifuged at 17.000 g for 20 minutes at 4° C. The supernatant after this centrifugation is discarded and the membrane sediment resuspended with 5 mmol/l of TRIS-acetate buffer, pH 8.0 (20 ml/g of original fresh weight) and homogenised with 10 piston strokes at 500 rpm.
# The membrane homogenate is then incubated for 1 hour at 4° C. and centrifuged for 30 minutes at 50,000 g and 4° C. The supernatant is discarded and the centrifuge tubes containing the membrane sediment are sealed with Parafilm and frozen for 24 hours at −20° C. On the following day, the membrane sediment is thawed and resuspended with ice-cold 5 mmol/l TRIS-acetate buffer, 0,1% saponin (wt./vol.), pH 7.0 (10 ml/g of original fresh weight) and homogenised with 10 piston strokes at 500 rpm and then centrifuged for 20 minutes at 50.000 g and 4° C. The resultant supernatant is discarded and the sediment resuspended in a small volume with 5 mmol/l of TRIS-acetate buffer, pH 7.0 (approx. 2 ml/g of original fresh weight) and again homogenised with 10 piston strokes at 500 rpm. After determination of the protein content, the membrane homogenate is adjusted with 5 mmol/l TRIS-acetate buffer, pH 7.0, to a protein concentration of 10 mg of protein/ml and frozen in aliquots until used for testing.
# The receptor binding test is performed by thawing aliquots, diluting them 1:10 with 5 mmol/l TRIS-acetate buffer, pH 7.0, homogenising them with ice-cooling with 10 piston strokes at 500 rpm with the Potter homogeniser (10 piston strokes at 500 rpm) and centrifuging them for 60 minutes at 55,000 g at 4° C. The supernatant is decanted and the membrane sediment adjusted with ice-cold 50 mmol/l TRIS-acetate buffer, pH 7.0, to a protein concentration of 1 mg/ml and again homogenised with 10 piston strokes at 500 rpm and kept in suspension in an ice bath with stirring on a magnetic stirrer. This membrane homogenate is used in the receptor binding test in a quantity of 100 µl per 1 ml batch (0.1 mg of protein/ml in the final batch). […] The level of nonspecific binding is determined in the presence of 1 mmol/l of glycine.
# In further batches, the compounds used according to the invention are added in concentration series and the displacement of the radioactive ligand from its specific binding at the glycine-binding site of the NMDA receptor channel is determined. Each of the triplicate batches is incubated for 120 minutes at 4° C. and then harvested by filtration through glass fibre filter mats (GF/B) in order to determine the radioactivity bound to the membrane homogenate.
# [2] = test system: formaldehyde-induced nociception; assay: Formaldehyde test (mouse), second (late) phase; assay type: in vivo; conditions: male NMRI mice, percentage change of the control
# Protocol: (b) Formaldehyde Test (Mouse)
# The investigations for determining the antinociceptive action of the substituted 2-arylaminoacetic acid compounds and/or substituted 2-heteroarylaminoacetic acid compounds of the above general formula I used according to the invention are carried out by the formaldehyde test on male albino mice (NMRI, 25-35 g, Iffa, Credo, Belgium).
# In the formaldehyde test, a distinction is drawn between the first (early) phase (0-15 min after formaldehyde injection) and the second (late) phase (15-60 min after formaldehyde injection) (D. Dubuisson et al., Pain, vol. 4, pp. 161-174 (1977)). The early phase, being a direct response to the formaldehyde injection, is considered to be a model of acute pain, while the late phase is considered to be a model of persistent (chronic) pain (T. J. Coderre et al., Pain, vol. 52, pp. 259-285 (1993)). The corresponding literature descriptions are hereby introduced as a reference and are deemed to be part of the disclosure. […]
# For the investigation period in the second (late) phase of the formaldehyde test, nociceptive behaviour is continuously recorded by observing the animals. […] On the basis of the quantification of the pain behaviour, action in the formaldehyde test is determined as a percentage change of the control. […]
SMILES,inhibition at 10 µM [1],also measured
"O=C(O)C(Nc1cc(Cl)cc(Cl)c1)c1cccc2c1sc1ccccc12 (centres unmarked) [Example 2, (Dibenzothiophen-4-yl)-(3,5-dichlorophenylamino)acetic acid]",33%,
"CSc1ccc(C(Nc2cc(Cl)cc(Cl)c2)C(=O)O)cc1 (centres unmarked) [Example 13, (3,5-Dichlorophenylamino)-(4-methylsulfanylphenyl)acetic acid, sodium salt]",83%,
"O=C(O)C(Nc1cc(Cl)cc(Cl)c1)c1cccc2c1Sc1ccccc1S2 (centres unmarked) [Example 11, (3,5-Dichlorophenylamino)-(thianthren-1-yl)acetic acid, sodium salt]",25%,
"CSc1ccccc1C(Nc1cc(Cl)cc(Cl)c1)C(=O)[O-].[Na+] (centres unmarked) [Example 12, (3,5-Dichlorophenylamino)-(2-methylsulfanylphenyl)acetic acid, sodium salt]",39%,Inhibition (at dose) ([2]; at 31.6 mg/kg): 66% (at 31.6 mg/kg)
"CSc1ccc(C(Nc2cc(Cl)cc(Cl)c2)C(=O)O)cc1 (centres unmarked) [Example 6, (3,5-Dichlorophenylamino)-(4-methylsulfanylphenyl)acetic acid]",,Inhibition % (percentage fraction of bound radioactive ligand displaced from its specific binding) [1]: 87%; Inhibition (at dose) ([2]; at 46.4 mg/kg): 31% (at 46.4 mg/kg)
"O=C(O)C(Nc1cc(Cl)cc(Cl)c1)c1cccc2c1Oc1ccccc1S2 (centres unmarked) [Example 10, (3,5-Dichlorophenylamino)-(phenoxathiin-4-yl)acetic acid, sodium salt]",38%,
